The text below walks through data of a melting point compilation (Tetko et al.; mined from patent text by program, amines drawn as free bases though some values may be those of a salt).

What is called melting point is the temperature of the solid-liquid transition. In turn, `C=CCNc1ccc(N(CC=C)CC=C)cc1[N+](=O)[O-]` showed a melting point of 131 to 140 °C.
As for `CO[C@@H]1[C@@H](OC)[C@H](C)O[C@@H](OC(=O)Nc2ccc(-c3ccnc(-c4ccc(C(F)(F)F)cc4)n3)cc2)[C@@H]1OC`, the melting point is 176 to 179 °C.
To `Cc1ccc(-c2ccc(-c3nnn(CCCCCCc4cccnc4)n3)cc2)cc1C` belongs 63 to 64 °C; to `CC(=O)N[C@@H](CSC(C)=O)C(=O)NCCSC(=O)c1ccccc1`, 166 to 168 °C.
For `CC(=O)c1ccccc1NC(C)c1c(Cl)cccc1Cl` (stereo not given), the melting point was 123 °C.
In the case of `CC(=O)c1ccc(OCCCN2CCC(c3noc4cc(F)ccc34)CC2)cc1` it was 111 to 112 °C.
Take `COC(=O)c1cnccc1NC(=O)C(C)CS` (stereo not given): the melting point was in the range of 54 to 56 °C.
`CN(c1ccncc1)c1ccccc1C(=O)N1CCCCC1`: the melting point fell in the range of 110 to 111 °C.
For `COCc1ccc(Oc2cncc3sc(C(N)=O)cc23)cc1`, the melting point stood at 168 °C.
On to `CC(=O)OC1CCc2cc3ccccc3n2C1` (stereo not given), for which the melting point lay within 90 to 95 °C.
In the case of `COc1cc(NC(=O)OCc2ccccc2)c(Cl)cc1-c1n[nH]c(=O)o1`, the melting point was determined as 214 °C.
The compound `Cc1ccccc1COC1COC(c2ccco2)OC1` (stereo not given) came in with a melting point of 64 to 65 °C.
Take `CN1CCN(C(=O)c2ccc(-c3cnc4c(c3)N(Cc3cc(F)ccc3F)CC(C)(C)N4)cc2)CC1`: the melting point was in the range of 191 to 192 °C.
On to `O=C1Cc2cccc(S(=O)c3ccc(Cl)cc3)c2N1` (stereo not given), for which the melting point was 191 to 194 °C.
To `CC(C)(C)OC(=O)N1C[C@H](NS(=O)(=O)c2ccc(Cl)cc2)C[C@H]1C=O` belongs 120 to 122 °C; to `N#Cc1ncc(Cl)cc1F`, 72 to 73 °C.
The compound `CC(=O)C(=O)C(=O)OC(C)(C)C` displayed a melting point of 62 to 66 °C.
As for `CC(C)(C)NC(=O)N(C(=O)C1CCC2C3CC=C4C=C(C(=O)O)CCC4(C)C3CCC12C)C(C)(C)C` (stereo not given), the melting point fell in the range of 118 to 120 °C.
In turn, `C=C(C)Cc1c(O)cc(C(C)(C)C)c(OC(C)=O)c1C(C)(C)C` registered a melting point of 102 °C.
To `CC(C)c1cccc(C(C)C)c1NC(=O)CNC(c1ccccc1)c1cccs1` (stereo not given) belongs 164 to 166 °C; to `CCCCCS(=O)(=O)NC(=O)CCc1cc(OC(C)C)nn1Cc1ccc(Cl)cc1Cl`, 126 to 129 °C.
Turning to `CCCCC(CC(=O)Nc1cc(C(N)=O)ccc1C(C)(C)C)c1cc(Cl)c(OCCCS(=O)(=O)CCC)cc1OC` (stereo not given), the melting point lay in the range of 144 to 150 °C.
`CC(Cc1ccc(OCCNC(=O)c2ccc(-c3ccccn3)cc2)cc1)(Oc1ccccc1)C(=O)O` (stereo not given): the melting point lay in the range of 76 to 79 °C.
In the case of `CCOc1ccc([N+](=O)[O-])c(NC)n1` it was 101 °C.
To `O=C(O)c1cn(C2CC2)c2nc(N3CCC(c4ccccn4)C3)c(F)cc2c1=O` (stereo not given) belongs 203 to 204 °C; to `O=C(CC1CCCCC1)N(O)Cc1ccccc1`, 83 to 85 °C.
Regarding `COc1cc(C(C)=O)ccc1OCCCN1CCC(C(O)(c2cccc(F)c2)c2cccc(F)c2)CC1`, the melting point lay within 149 to 151 °C.
On to `CN(C)Cc1cccc(CSCCNc2ncc(Cc3cccnc3)c(=O)[nH]2)c1`, for which the melting point was 143 to 145 °C.
For `CSc1ccc(C=CC(=O)c2ccc(N(C)C)cc2)cc1`, the melting point turned out to be 150 °C.
To `C[C@@H](n1cnc2cc(N(C)C)c(F)cc2c1=O)[C@](O)(Cn1cncn1)c1ccc(F)cc1F` belongs 197 to 198 °C; to `CC(C)c1ncc2n1-c1ccc(Cl)cc1C(c1ccccc1F)=NC2`, 168 to 169 °C.
To `C=CCOc1ccccc1C1C(C(=O)OCC)=C(C)NC(C=O)=C1C(=O)OCC` (stereo not given) belongs 129 to 131 °C; to `CC1Cc2c(-c3ccccc3)[nH]c(-c3ccccc3)c2CC1C` (stereo not given), 133 °C.
Regarding `Cc1ccc2c(c1)C(=O)c1ccccc1CO2`, the melting point is 100 to 103 °C.
Regarding `CCCCc1nc2c(N)nc3ccc(OCc4ccccc4)cc3c2n1CCCCN`, the melting point was 161 to 164 °C.
On to `COC(=O)CCCC#Cc1cc(Cl)ccc1NS(=O)(=O)c1cccc2ccccc12`, for which the melting point fell in the range of 93 to 95 °C.
In the case of `CN(C)C1CCN(c2nc(N3CCOCC3)c3ncnc(NCCCc4ccccc4)c3n2)CC1` it was 82 to 84 °C; in that of `c1cc(-c2noc(C3CC3)n2)ncn1`, 89 to 94 °C; in that of `CC1=CC(c2ccc(C(F)(F)F)cc2)C2=C(CCCC2=O)N1` (stereo not given), 116 to 118 °C.
The compound `CN1C(=O)CC[C@]2(C)c3ccc(-c4ccc5ccccc5n4)cc3CC[C@@H]12` returned a melting point of 140 to 145 °C.
For the compound `CCC(CC)Nc1cc(C)nc(Oc2c(C)cc(C)cc2C)c1CN`, the melting point was 117 to 119 °C.
In the case of `Cc1ccc2c(c1)C(c1cn(C)c(=O)[nH]c1=S)c1nc(C)oc1C=C2` (stereo not given) it was 238 to 240 °C.
Regarding `O=C(O)Cc1cccc2c(-c3ccc(Cl)cc3)onc12`, the melting point fell in the range of 200 to 202 °C.
Take `CCOC(=O)C1=Cc2cccc(NS(=O)(=O)N(C)C)c2OCC1`: the melting point lay within 93 to 96 °C.
In the case of `O=C1C(=CO)CC[C@H]2C(=O)C(=CO)CC[C@H]12` it was 155 to 157 °C; in that of `CCOC(=O)c1ccc(N=C(C)c2ccccc2)cc1`, 87 °C.
`Fc1ccc(F)c(C(Sc2ccc(Cl)cc2)c2ccc(CSc3ccc(Cl)cc3)cn2)c1` (stereo not given): the melting point lay within 87 to 88 °C.
As to `CNC(=O)c1cccc(NC(=O)Cc2ccc3c(c2)OCO3)c1`, the melting point lay within 174 to 175 °C.
Turning to `CC(C)Cn1c(CNC(=O)OC(C)(C)C)c(-c2ccccc2F)c2cc(C#N)ccc2c1=O`, the melting point was 191 to 192 °C.
To `CCC=Cc1c(C(C)C)nc(C(C)C)c(CO)c1-c1ccc(F)cc1` belongs 115 to 117 °C.
The compound `CCCCNc1c(C(=O)OCC)c(C)nc2nc(C)c(C)nc12` returned a melting point of 97 to 99 °C.
To `COc1ccc2cc(C(=O)Oc3ccc(Cl)cn3)c(=O)oc2c1` belongs 248 to 250 °C; to `COc1ccc(-n2nc(OC(C)C)cc2-c2ccc(OCCNC(N)=O)cc2)cn1`, 120 °C; to `Nc1ccc(Cl)c(Cl)c1CO`, 134 to 135 °C.
Regarding `NS(=O)(=O)Nc1ccc(N2CCN(c3ccncc3)CC2)cc1`, the melting point fell in the range of 216 to 219 °C.
Take `O=C(Nc1cccc2c(CBr)c(Br)cnc12)c1c(Cl)cccc1Cl`: the melting point was 210 to 213 °C.
To `CC(C)(C)N1CC(=O)Nc2ccc(Br)cc2C1=O` belongs 205 to 208 °C.
In the case of `CCOC1CC2CCC3C4CCC(C(C)=O)C4(C)CC(NC(=O)OCC(Cl)(Cl)Cl)C3C2(C)CC1OCC` (stereo not given) it was 68 to 71 °C; in that of `COc1cc(C#N)c2nc(-c3ccc(OC)c(F)c3)cc(O)c2c1`, 218 to 220 °C; in that of `CCC(=O)Nc1cccc(-c2ccc(Cl)nn2)c1`, 184 to 187 °C.
`ClCc1coc(-c2cc(Cl)cs2)n1` returned a melting point of 72 to 73 °C.
`O=C(CNC(=O)c1ccc(F)cc1)c1cccnc1` yielded a melting point of 164 to 166 °C.
The compound `O=c1cc2c(nn1-c1ccc(Cl)cc1)-c1cc(CO)sc1CCC2` displayed a melting point of 118 to 121 °C.
Take `COc1nc2cc(SCCCc3cc4c(cc3O)CC(CCc3ccccc3)O4)ccc2cc1C(=O)O` (stereo not given): the melting point lay within 157 to 161 °C.
The compound `NS(=O)(=O)c1cscc1C(=O)Cl` gave a melting point of 236 to 238 °C.
`CCc1cc2c(ccc(=O)n2Cc2ccc(C(=O)OC)cc2)c(CC)n1` showed a melting point of 128 to 130 °C.
`OC1CC=C(c2ccc(C(F)(F)F)cc2)CC1` (stereo not given) returned a melting point of 104 to 106 °C.
Regarding `CON(C)C(=S)Nc1ccc(OCCc2ccccc2)c(Cl)c1`, the melting point fell in the range of 116 to 117 °C.
For `CC(C1CC(c2ccc(C(F)(F)F)cc2)C1)N(O)C(N)=O` (stereo not given), the melting point was 147 to 148 °C.
Compound `c1ccc(N(Cc2ccc(OCOc3ccc(CN(c4ccccc4)c4ccccc4)cc3)cc2)c2ccccc2)cc1` came in with a melting point of 99 to 100 °C.
To `CCOc1ccc2[nH]c(=O)n(-c3ccccn3)c2c1` belongs 205 °C.
To `O=C1c2cc([N+](=O)[O-])ccc2SC12CC2` belongs 126 to 128 °C; to `CCNC(=S)NC1CCCc2sccc21` (stereo not given), 106 to 112 °C; to `CCCCCCCCOc1ccc2c(OC(C)=O)c3cc4ccccc4cc3c(OC(C)=O)c2c1`, 107 to 111 °C.
In the case of `COc1ccc2cnc(=O)[nH]c2c1C(C)C` it was 188 to 190 °C; in that of `O=C(O)C=CC(=O)Nc1n[nH]c2ccc(Br)cc12`, 172 °C; in that of `COc1ccc(-c2nc(C(=O)O)cc(Cl)c2Cl)cc1`, 164 to 181 °C.
Consider `CC(C)(C)OC(=O)CN1CCN(CC(=O)O)C1=O`, for which the melting point is 112 to 113 °C.
Compound `CC(C)(Cc1ccc(Cl)cc1)C(=O)Cn1cncn1` yielded a melting point of 127 °C.
Turning to `Cn1c(C(F)(F)F)cc(=O)n(-c2cc(OCCCl)c(Cl)cc2F)c1=O`, the melting point lay within 100 to 103 °C.
Compound `COC(=O)[C@@H]1C[C@@H](Br)C(=O)[C@@H]2[C@@]3(C)C[C@@H](c4ccoc4)OC(=O)[C@H]3CC[C@]21C` had a melting point of 170 to 173 °C.
`CCCCCCCCCCOC(=O)Oc1ccc(-c2ccc(C#N)cc2)cc1` yielded a melting point of 59.3 to 60 °C.
Turning to `O=c1[nH]c2cc(Cl)ccc2c(O)c1Sc1ccccc1Cl`, the melting point is greater than 300 °C.
In turn, `CC(=O)OCCC1CC(=O)N1` (stereo not given) returned a melting point of 44 to 47 °C.
`CC(C)[C@H](CCC(=O)O)NC(=O)OC(C)(C)C`: the melting point is 107 to 109 °C.
On to `CC(C)(C)C(O)C(Oc1ccc(Cl)cc1)n1ncnc1S` (stereo not given), for which the melting point was 193 to 194 °C.
`CC(=O)Nc1c(C)c2c(c(C)c1N(C)C)OC(C)(C)C2` gave a melting point of 142 to 143 °C.
`COC(=O)c1cc(N2C(=O)C3C4CC4CN3C2=O)c(F)cc1Cl` (stereo not given): the melting point was in the range of 59 to 62 °C.
In turn, `CCCCCCCCCCC(O)C1CCC(C2CCC(C(O)CCCCCCCCCC(O)CC3=CC(C)OC3=O)O2)O1` (stereo not given) displayed a melting point of 69 to 70 °C.
To `CC1(C)Oc2ccc(S(=O)(=O)c3ccc(C#N)cc3)cc2[C@@H](N2CCCC2=O)[C@@H]1O` (relative stereo) belongs 234 to 235 °C.
